Results from US20080311212A1, “CRYSTALLINE ISOXAZOLE DERIVATIVE AND PHARMACEUTICAL PREPARATION THEREOF” (Dainippon Sumitomo Pharma Co., Ltd., priority 2001, published 2008).

What was measured:
Type in all cases: physicochemical
[1] = Dry pneumatic grinding of crystals 1 (A-O Jet Mill): amount adhering to inside of apparatus; conditions: 7 g crystals charged, pneumatic grinding at 0.49 MPa
Text: Crystals were charged into an A-O Jet Mill (mfd. by Seishin Enterprise Co., Ltd.) and subjected to pneumatic grinding at a forcing pressure of 0.49 MPa and a grinding pressure of 0.49 MPa.

[2] = Dry pneumatic grinding of crystals 2 (Jet O Mill): particle size distribution of ground crystals; conditions: one run of dry pneumatic grinding, 0.44-0.49 MPa, laser diffraction (dry measurement)
Text: Crystals were charged into a Jet 0 Mill Model JOMO101 (mfd. by Seishin Enterprise Co., Ltd.) and subjected to pneumatic grinding at a forcing pressure and a grinding pressure (which had been set at the same pressure) of 0.44 MPa to 0.49 MPa. […] A laser diffraction particle size distribution meter (dry measurement) was used for measuring the particle size distribution. It has already been confirmed that repeated grinding or the increase of the grinding pressure is necessary for further particle size reduction.

[3] = Wet high-pressure grinding of crystals (Microfluidizer): particle size distribution of ground crystals; conditions: wet high-pressure grinding in water, 100 MPa, laser diffraction (wet measurement)
Procedure: Crystals were charged into Microfluidizer Model M110Y (mfd. by Mizuho Industrial Co., Ltd.) together with water and subjected to high-pressure grinding. […] In this case, the α type crystals were solidified during the grinding. […] The particle size distribution was measured by dispersing the ground crystals in water in an agate mortar. A laser diffraction particle size distribution meter (wet measurement) was used for measuring the particle size distribution.

[4] = Crystal type stability on grinding / in aqueous suspension; conditions: for change of crystal type during grinding: α: wet grinding under high-pressure conditions, suspended in water, β: pneumatic and wet grinding
Text: When the α type crystals were subjected to pneumatic grinding, they adhered remarkably to the inside of a grinding apparatus. Therefore, their pulverization to a desirable size by one run of grinding operation was difficult, so that it was necessary to grind them repeatedly several times. Since it often became necessary to remove the crystals adhering to the inside, the grinding efficiency and the yield were low.
When the β type crystals were subjected to pneumatic grinding, they hardly adhered to the inside of a grinding apparatus, were easy to handle in a process of their formulation into a pharmaceutical preparation, and could be continuously ground. The β type crystals could easily be ground also by a wet grinding method and made it possible to produce finer powder that could be formulated into a pharmaceutical preparation.
The β type crystals of the present invention may be obtained also by stirring phosphate or a type crystals of the isoxazole derivative of the formula 1 in a suspended state in water for a definite time. In the case of the phosphate, the β type crystals could be obtained, for example, by stirring the phosphate at 50° C. for about 5 hours. […] So long as seed crystals for the β type crystals are used, it is also possible to produce the β type crystals by using any of hydrophobic organic solvents such as aromatic hydrocarbons (e.g. toluene and benzene), ethers (e.g. t-butyl methyl ether, diisopropyl ether and diethyl ether), aliphatic hydrocarbons (e.g. cyclohexane, hexane and heptane), halogen-containing solvents (e.g. chloroform, methylene chloride and 1,2-dichloroethane) and esters (e.g. ethyl acetate). For example, the isoxazole derivative of the formula 1 may be crystallized by dissolving the derivative in a mixed solvent of toluene and 2-propanol and adding hexane thereto.

Adhering amount [1] [g]	Undersize particle D50% particle size ([2]; D50%) [μm]	Undersize particle D50% particle size ([2]; first D50% line) [μm]	Undersize particle D50% particle size ([3]; D50%) [μm]	Undersize particle D50% particle size ([3]; first D50% line) [μm]	change of crystal type during grinding [4]	SMILES	thermodynamic stability of crystal type ([4]; stirring phosphate or α type crystals suspended in water gives β type crystals)
2.06	79.3	27.6	58.1	26.1	changed to the β type crystals	C[C@@H](c1ccc(-c2ccccc2)c(F)c1)c1cc(/N=C(/N)N2CCOCC2)on1 [α type crystals, 3-[(1S)-1-(2-fluorobiphenyl-4-yl)ethyl]-5-{[amino(morpholin-4-yl)methylene]amino}isoxazole]	
0.00	10.2	4.7	3.2	1.7	did not change the crystal type	C[C@@H](c1ccc(-c2ccccc2)c(F)c1)c1cc(/N=C(/N)N2CCOCC2)on1 [β type crystals, 3-[(1S)-1-(2-fluorobiphenyl-4-yl)ethyl]-5-{[amino(morpholin-4-yl)methylene]amino}isoxazole]	thermodynamically more stable than the α type crystals
